US9566254B2, “Inhibitors and methods of inhibiting bacterial and viral pathogens” (priority 2010, dated 2017)
Counter-ions that a name gives are not always drawn. Like-named read-outs stand apart in the source and are kept apart here.

Legend:
Assay in all cases: microbe, parasite or virus in culture
Format in all cases: cell-based
vaccinia virus = conditions: read-out: Avg Activity (VV)
La Crosse virus (LACV) = conditions: read-out: Avg Activity (LACV)
Chlamydophila caviae = conditions: read-out: Avg Activity (C. Caviae)
influenza virus = conditions: unidentified influenza virus
dengue virus = system: dengue virus
Tacaribe virus = conditions: Mammarenavirus tacaribeense, Vero
[1] = A549, read-out: Misc Activity: Influenza
[2] = read-out: Misc Activity: Dengue
[3] = read-out: Misc Activity: Tacaribe

| Compound | EC50 (vaccinia virus; Orthopoxvirus vaccinia) [µM] | EC50 (La Crosse virus (LACV); La Crosse virus, Vero) [µM] | EC50 (Chlamydophila caviae; Chlamydia caviae, Vero) [µM] | also measured |
| --- | --- | --- | --- | --- |
| COc1cc(NC(=S)NC(=O)c2ccc(C(C)(C)C)cc2)ccc1N [Compound 1, N-[(4-amino-3-methoxy-phenyl)carbamothioyl]-4-tert-butyl-benzamide] | < 1 | < 1 | < 1 | EC50 (influenza virus; [1]): < 1 µM |
| Cc1ccc(Cl)c(NC(=S)NC(=O)c2ccc(C(C)(C)C)cc2)c1 [Compound 11, 4-tert-butyl-N-[(2-chloro-5-methyl-phenyl)-carbamothioyl]benzamide] | < 1 | 1 to 10 | < 1 | EC50 (influenza virus; [1]): 1 to 10 µM; EC50 (dengue virus; [2]): < 1 µM |
| CC(C)(C)c1ccc(C(=O)NC(=S)Nc2cccc(N)c2)cc1 [Compound 17, N-[(3-aminophenyl)-carbamothioyl]-4-tert-butyl-benzamide] | 1 to 10 | 1 to 10 | < 1 | EC50 (influenza virus; [1]): < 1 µM; EC50 (dengue virus; [2]): < 1 µM; EC50 (Tacaribe virus; [3]): < 1 µM |
| COc1cc(NC(=S)NC(=O)c2ccc(C(C)(C)C)cc2)ccc1N [Compound 18, N-[(4-amino-3-methoxy-phenyl)carbamothioyl]-4-tert-butyl-benzamide hydrochloride] |  |  |  | EC50 (vaccinia virus; hydrochloride): 1 to 10 µM; EC50 (La Crosse virus (LACV); hydrochloride): 1 to 10 µM; EC50 (dengue virus; [2]): < 1 µM; EC50 (Tacaribe virus; [3]): < 1 µM |
| COc1cc(NC(=S)NC(=O)c2ccc(C(C)(C)C)cc2)ccc1NC(C)=O [Compound 20, N-[(4-acetamido-3-methoxy-phenyl)-carbamothioyl]-4-tert-butyl-benzamide] | 1 to 10 | 1 to 10 | < 1 | EC50 (influenza virus; [1]): < 1 µM; EC50 (dengue virus; [2]): < 1 µM; EC50 (Tacaribe virus; [3]): < 1 µM |
| CNc1ccc(NC(=S)NC(=O)c2ccc(C(C)(C)C)cc2)cc1 [Compound 21, 4-tert-butyl-N-[[4-(methylamino)phenyl]-carbamothioyl]benzamide hydrochloride] | 1 to 10 | 1 to 10 | < 1 | EC50 (influenza virus; [1]): < 1 µM; EC50 (dengue virus; [2]): < 1 µM; EC50 (Tacaribe virus; [3]): < 1 µM |
| CC(C)(C)c1ccc(C(=O)NC(=S)Nc2ccc(NC(=O)c3ccccc3)cc2)cc1 [Compound 43, N-[(4-benzamidophenyl)-carbamothioyl]-4-tert-butyl-benzamide] | < 1 | < 1 | < 1 |  |
| CC(C)(C)c1ccc(C(=O)NC(=S)Nc2cc(C(F)(F)F)ccc2Cl)cc1 [Compound 44, 4-tert-butyl-N-[[2-chloro-5-(trifluoromethyl)phenyl]-carbamothioyl]benzamide] | < 1 | < 1 | < 1 |  |
| CC(C)(C)c1ccc(C(=O)NC(=S)Nc2ccc(Nc3ccccc3)cc2)cc1 [Compound 45, N-[(4-anilinophenyl)-carbamothioyl]-4-tert-butyl-benzamide] | < 1 | 1 to 10 | < 1 | EC50 (influenza virus; A549, read-out: Misc Virus Activity: Influenza): < 1 µM; EC50 (dengue virus; read-out: Misc Virus Activity: Dengue): < 1 µM; EC50 (Tacaribe virus; read-out: Misc Virus Activity: Tacaribe): < 1 µM |
| CC(C)(C)c1ccc(C(=O)NC(=S)Nc2cc(C(C)(C)C)ccc2O)cc1 [Compound 46, 4-tert-butyl-N-[(5-tert-butyl-2-hydroxy-phenyl)-carbamothioyl]benzamide] | < 1 | 1 to 10 | < 1 |  |
| Cc1c(Cl)cccc1NC(=S)NC(=O)c1ccc(C(C)(C)C)cc1 [Compound 47, 4-tert-butyl-N-[(3-chloro-2-methyl-phenyl)-carbamothioyl]benzamide] | 1 to 10 | < 1 | < 1 |  |
| CC(C)(C)c1ccc(C(=O)NC(=S)Nc2cc(Cl)ccc2Cl)cc1 [Compound 50, 4-tert-butyl-N-[(2,5-dichlorophenyl)-carbamothioyl]benzamide] | 1 to 10 | 1 to 10 | < 1 |  |
| COc1ccccc1NC(=S)NC(=O)c1ccc(C(C)(C)C)cc1 [Compound 51, 4-tert-butyl-N-[(2-methoxyphenyl)-carbamothioyl]benzamide] | 1 to 10 | 1 to 10 | < 1 |  |
| CC(C)(C)c1ccc(C(=O)NC(=S)Nc2cccc(Cl)c2)cc1 [Compound 52, 4-tert-butyl-N-[(3-chlorophenyl)-carbamothioyl]benzamide] | 1 to 10 | 1 to 10 | < 1 |  |
| CC(C)(C)c1ccc(C(=O)NC(=S)Nc2ccccc2)cc1 [Compound 53, 4-tert-butyl-N-(phenylcarbamothioyl)-benzamide] | 1 to 10 | 1 to 10 | < 1 |  |
| Cc1cccc(NC(=S)NC(=O)c2ccc(C(C)(C)C)cc2)c1C [Compound 54, 4-tert-butyl-N-[(2,3-dimethylphenyl)-carbamothioyl]benzamide] | 1 to 10 | 1 to 10 | < 1 |  |
| Cc1ccc(NC(=S)NC(=O)c2ccc(C(C)(C)C)cc2)cc1C [Compound 55, 4-tert-butyl-N-[(3,4-dimethylphenyl)-carbamothioyl]benzamide] | 1 to 10 | 1 to 10 | < 1 |  |
| CCOc1ccccc1NC(=S)NC(=O)c1ccc(C(C)(C)C)cc1 [Compound 56, 4-tert-butyl-N-[(2-ethoxyphenyl)-carbamothioyl]benzamide] | 1 to 10 | 1 to 10 | < 1 |  |

| Compound | EC50 (vaccinia virus; Orthopoxvirus vaccinia) [µM] | EC50 (La Crosse virus (LACV); La Crosse virus, Vero) [µM] | EC50 (Chlamydophila caviae; Chlamydia caviae, Vero) [µM] | also measured |
| --- | --- | --- | --- | --- |
| CC(C)C(=O)Nc1cccc(NC(=S)NC(=O)c2ccc(C(C)(C)C)cc2)c1 [Compound 57, 4-tert-butyl-N-[[3-(2-methylpropanoylamino)-phenyl]carbamothioyl]-benzamide] | 1 to 10 | 1 to 10 | < 1 |  |
| CC(C)(C)c1ccc(C(=O)NC(=S)Nc2ccccc2[N+](=O)[O-])cc1 [Compound 58, 4-tert-butyl-N-[(2-nitrophenyl)carbamothioyl]-benzamide] | 1 to 10 | 1 to 10 | < 1 |  |
| Cc1ccc(NC(=S)NC(=O)c2ccc(C(C)(C)C)cc2)cc1 [Compound 59, 4-tert-butyl-N-(p-tolylcarbamothioyl)-benzamide] | 1 to 10 | 1 to 10 | < 1 |  |
| CC(C)(C)c1ccc(C(=O)NC(=S)Nc2ccc(N)cc2)cc1 [Compound 60, N-[(4-aminophenyl)-carbamothioyl]-4-tert-butyl-benzamide] | 1 to 10 | 1 to 10 | < 1 |  |
| CC(C)(C)c1ccc(C(=O)NC(=S)Nc2ccccc2F)cc1 [Compound 61, 4-tert-butyl-N-[(2-fluorophenyl)carbamothioyl]-benzamide] | 1 to 10 | 1 to 10 | 1 to 10 |  |
| CCC(=O)Nc1cccc(NC(=S)NC(=O)c2ccc(C(C)(C)C)cc2)c1 [Compound 62, 4-tert-butyl-N-[[3-(propanoylamino)phenyl]-carbamothioyl]benzamide] | 1 to 10 | 1 to 10 | 1 to 10 |  |
| Cc1cccc(NC(=S)NC(=O)c2ccc(C(C)(C)C)cc2)c1 [Compound 63, 4-tert-butyl-N-(m-tolylcarbamothioyl)-benzamide] | 1 to 10 | 1 to 10 | 1 to 10 |  |
| CC(C)(C)c1ccc(C(=O)NC(=S)NC2CCCCC2)cc1 [Compound 64, 4-tert-butyl-N-(cyclohexyl-carbamothioyl)benzamide] | 1 to 10 | 1 to 10 | 1 to 10 |  |
| Cc1cc(C)cc(NC(=S)NC(=O)c2ccc(C(C)(C)C)cc2)c1 [Compound 65, 4-tert-butyl-N-[(3,5-dimethylphenyl)-carbamothioyl]benzamide] | 1 to 10 | 1 to 10 | 1 to 10 |  |
| COc1cccc(NC(=S)NC(=O)c2ccc(C(C)(C)C)cc2)c1 [Compound 66, 4-tert-butyl-N-[(3-methoxyphenyl)-carbamothioyl]benzamide] | 1 to 10 | > 25 | < 1 |  |
| Cc1ccc(C)c(NC(=S)NC(=O)c2ccc(C(C)(C)C)cc2)c1 [Compound 67, 4-tert-butyl-N-[(2,5-dimethylphenyl)-carbamothioyl]benzamide] | 1 to 10 | > 25 | < 1 |  |
| COc1ccc(NC(=S)NC(=O)c2ccc(C(C)(C)C)cc2)cc1 [Compound 68, 4-tert-butyl-N-[(4-methoxyphenyl)-carbamothioyl]benzamide] | 1 to 10 | > 25 | 1 to 10 |  |
| CC(C)(C)c1ccc(C(=O)NC(=S)Nc2ccc([N+](=O)[O-])cc2)cc1 [Compound 69, 4-tert-butyl-N-[(4-nitrophenyl)-carbamothioyl]benzamide] | 1 to 10 | > 25 | > 25 |  |
| Cc1cccc(C)c1NC(=S)NC(=O)c1ccc(C(C)(C)C)cc1 [Compound 71, 4-tert-butyl-N-[(2,6-dimethylphenyl)-carbamothioyl]benzamide] | 10 to 25 | > 25 | < 1 |  |
| Cc1sc(NC(=S)NC(=O)c2ccc(C(C)(C)C)cc2)c(C#N)c1C [Compound 72, 4-tert-butyl-N-[(3-cyano-4,5-dimethyl-2-thienyl)-carbamothioyl]benzamide] | 10 to 25 | > 25 | 10 to 25 |  |
| CCNC(=S)NC(=O)c1ccc(C(C)(C)C)cc1 [Compound 73, 4-tert-butyl-N-(ethylcarbamothioyl)-benzamide] | 10 to 25 | > 25 | > 25 |  |
| N-[3-[(4-tert-butylbenzoyl)-carbamothioylamino]phenyl]-2-chloro-benzamide [Compound 74] |  |  |  | EC50 (vaccinia virus): > 25 µM; EC50 (La Crosse virus (LACV)): 1 to 10 µM; EC50 (Chlamydophila caviae): > 25 µM |
